From patent US7078422B2, “Activator for peroxisome proliferator-activated receptor” (Nippon Chemiphar Co., Ltd., priority 2001, dated 2006) come the findings set out here.

One assay has as its target T1, GAL4-hPPARδ LBD (Homo sapiens, UniProt Q03181).
T1 construct: A chimeric receptor expression plasmid (GAL4-hPPARδ LBD); expressed in transfected cells; host or cells: CV-1 cells
T1 sequence (Q03181 211-439 limits assumed): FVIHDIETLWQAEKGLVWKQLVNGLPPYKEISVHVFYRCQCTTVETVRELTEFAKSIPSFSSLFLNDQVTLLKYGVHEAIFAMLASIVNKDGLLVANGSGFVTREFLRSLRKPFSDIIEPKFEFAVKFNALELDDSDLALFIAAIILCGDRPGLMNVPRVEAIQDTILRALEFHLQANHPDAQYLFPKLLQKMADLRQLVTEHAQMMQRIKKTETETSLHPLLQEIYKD
The experiment in a line: PPARδ transactivation activity (GAL4 chimeric receptor luciferase reporter in CV-1 cells). It counts as cell-based. The note with it: tested compound at 10^−5 M, control 10^−4 M L-165041 set to 100%, DMSO alone 0%, 40 hours. The method, then:
The PPARδ activating effect of the compound of the invention was determined by the following method:
A chimeric receptor expression plasmid (GAL4-hPPARδ LBD), a reporter plasmid (UASx4-TK-LUC) and β-galactosidase (β-GAL) are transfected into CV-1 cells by utilizing a lipofection reagent DMRIE-C (Life Technologies). Subsequently, it is incubated for 40 hours in the presence of a compound of the invention or a compound for comparison (GW-2433), and then the luciferase activity and β-GAL activity are measured on the soluble cells.
(§1) The luciferase activity is calibrated by the β-GAL activity. A relative ligand activity relating to PPARγ-activating effect is calculated in the same manner (see the below-described Example 3).
(§2) (1) Measurement of PPARγ, δ Transactivation Activity
(§3) Each of PPARγ & δ transactivation activities of the tested compound [compound of Example 1 and known PPARγ agonist (Rosiglitazone) and known PPARδ agonist (L-165041)] was measured in the manner described below.
CV-1 was obtained from Tohoku University Aging Medical Laboratory, Medical Cell Collection Center. All test compounds were dissolved in dimethylsulfoxide (DMSO) to give a test sample of 0.1% concentration. […]
The culture medium was removed and the cells were washed with PBS twice. […] (luciferase activity) was measured by means of MLR-100 type Microluminoreader (available from Corona Electrics Co., Ltd.). […]
For orientation: In a reporter assay the amount or activity of a reporter protein is the signal.

Another assay addresses T2, GAL4-hPPARγ LBD (Homo sapiens, UniProt P37231).
T2 construct: Receptor expression plasmid (GAL4-hPPARγ LBD, GAL4-hPPARδ LBD); expressed in transfected cells; host or cells: CV-1 cells
T2 sequence (P37231 238-503 limits assumed): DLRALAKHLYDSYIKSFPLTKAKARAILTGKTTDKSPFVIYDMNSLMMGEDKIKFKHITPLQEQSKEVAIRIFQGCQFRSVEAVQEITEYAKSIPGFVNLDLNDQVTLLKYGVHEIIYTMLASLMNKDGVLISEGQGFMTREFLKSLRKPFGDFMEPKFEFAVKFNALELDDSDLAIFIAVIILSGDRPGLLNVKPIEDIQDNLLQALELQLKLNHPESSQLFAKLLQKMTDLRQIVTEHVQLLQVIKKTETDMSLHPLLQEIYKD
Kind of assay: PPARγ transactivation activity (GAL4 chimeric receptor luciferase reporter in CV-1 cells). The note with it: tested compound at 10^−5 M, control 10^−5 M Rosiglitazone set to 100%, DMSO alone 0%, 40 hours. It counts as cell-based. The method, then:
as §1, §2, §3
CV-1 was obtained from Tohoku University Aging Medical Laboratory, Medical Cell Collection Center. All test compounds were dissolved in dimethylsulfoxide (DMSO) to give a test sample of 0.1% concentration.
Receptor expression plasmid (GAL4-hPPARγ LBD, GAL4-hPPARδ LBD), Luciferase expression plasmid (UASx4-TK-LUC), and β-galactosidase expression plasmid (βGAL) similar to Kliewer, S. A., et al., ((1992) Nature, 358:771–774) were employed. […]
The culture medium was removed and the cells were washed with PBS twice. […] (luciferase activity) was measured by means of MLR-100 type Microluminoreader (available from Corona Electrics Co., Ltd.). […] A relative PPAR activity was calculated based on the following: 0% (luciferase activity (control value) of cells treated with DMSO (0.1% concentration, solvent) alone), 100% (luciferase activity of cells treated with a control reagent (PPARγ: 10^−5 M Rosiglitazone, PPARδ: 10^−4 M L-165041)).

Regarding `CC(C)c1oc(-c2ccccc2Cl)nc1CCCC(=O)c1ccc(CC(=O)O)cc1` [Example 1, [4-[4-[2-(2-Chlorophenyl)-5-isopropyloxazol-4-yl]butyryl]phenyl]acetic acid], the “PPAR activity (relative value) for PPARδ” value at GAL4-hPPARδ LBD is listed as 93±3%. Also, the “PPAR activity (relative value) for PPARγ” value at GAL4-hPPARγ LBD was found to be 50%.
